Measured values as given in ChEMBL document CHEMBL1697731, “Cheminformatics analysis of assertions mined from literature that describe drug-induced liver injury in different species” (Chem Res Toxicol, 2010).

tested on: Hepatotoxicity; test: Literature-mined compound from Fourches et al multi-species drug-induced liver injury (DILI) dataset, effect in humans; settings: human

| Molecule | Hepatotoxicity |
| --- | --- |
| CNC(=O)[C@H]1O[C@@H](n2cnc3c(NCc4cccc(I)c4)ncnc32)[C@H](O)[C@@H]1O [IB-MECA] | no drug-induced liver injury reported |
| CCN(CC)CCCC(C)Nc1c2ccc(Cl)cc2nc2ccc(OC)cc12 (centres undefined) [QUINACRINE] | drug-induced liver injury reported |
| CC(c1cc2ccccc2s1)N(O)C(N)=O (centres undefined) [ZILEUTON] | drug-induced liver injury reported |
| C[C@]12C=CC(=O)C=C1CC[C@@H]1[C@@H]2[C@@H](O)C[C@@]2(C)[C@H]1CC[C@]2(O)C(=O)CO [PREDNISOLONE] | drug-induced liver injury reported |
| POLYVINYL ALCOHOL | no drug-induced liver injury reported |
| O=C(CO)[C@@H](O)[C@H](O)[C@H](O)CO [FRUCTOSE] | drug-induced liver injury reported |
| CCn1cc(C(=O)O)c(=O)c2cnc(N3CCNCC3)nc21 [PIPEMIDIC ACID] | drug-induced liver injury reported |
| CC(C)(C)NCC(O)COc1cccc2c1CC(O)C(O)C2 (centres undefined) [NADOLOL] | drug-induced liver injury reported |
| Cc1c(C)c2c(c(C)c1O)CCC(C)(COc1ccc(CC3SC(=O)NC3=O)cc1)O2 (centres undefined) [TROGLITAZONE] | drug-induced liver injury reported |
| O=C1CC2(CCCC2)CC(=O)N1CCCCN1CCN(c2ncccn2)CC1 [BUSPIRONE] | drug-induced liver injury reported |
| CCOc1nc2cccc(C(=O)OC(C)OC(=O)OC3CCCCC3)c2n1Cc1ccc(-c2ccccc2-c2nnn[nH]2)cc1 (centres undefined) [CANDESARTAN CILEXETIL] | drug-induced liver injury reported |
| CC(=O)OCC(CCn1cnc2cnc(N)nc21)COC(C)=O [FAMCICLOVIR] | drug-induced liver injury reported |
| CN(C)[C@@H]1C(O)=C(C(=O)NCN2CCCC2)C(=O)[C@@]2(O)C(O)=C3C(=O)c4c(O)cccc4[C@@](C)(O)[C@H]3C[C@@H]12 [ROLITETRACYCLINE] | no drug-induced liver injury reported |
| COc1ccc(C(=O)c2ccccc2)c(O)c1 [OXYBENZONE] | no drug-induced liver injury reported |
| CC1(C)[C@H](C(=O)O)N2C(=O)C[C@H]2S1(=O)=O [SULBACTAM] | drug-induced liver injury reported |
| CCOC(=O)[C@H](CCc1ccccc1)N[C@@H](C)C(=O)N1[C@H](C(=O)O)C[C@H]2CCCC[C@@H]21 [TRANDOLAPRIL] | drug-induced liver injury reported |
| CC(=O)Oc1cc(C(C)C)c(OCCN(C)C)cc1C [MOXISYLYTE] | drug-induced liver injury reported |
| C=CCC1(C(C)C#CCC)C(=O)N=C([O-])N(C)C1=O.[Na+] (centres undefined) [METHOHEXITAL SODIUM] | no drug-induced liver injury reported |
| CN(CCOc1ccc(CC2SC(=O)NC2=O)cc1)c1ccccn1 (centres undefined) [ROSIGLITAZONE] | drug-induced liver injury reported |
| N[C@@H](CN(O)N=O)C(=O)O [ALANOSINE] | no drug-induced liver injury reported |
| CC(=O)OCC(=O)[C@@]1(O)CC[C@H]2[C@@H]3CCC4=CC(=O)CC[C@]4(C)[C@H]3[C@@H](O)C[C@@]21C [HYDROCORTISONE ACETATE] | no drug-induced liver injury reported |
| O=C1[C@H](CC[C@H](O)c2ccc(F)cc2)[C@@H](c2ccc(O)cc2)N1c1ccc(F)cc1 [EZETIMIBE] | drug-induced liver injury reported |
| C#CCN(C)[C@H](C)Cc1ccccc1 [SELEGILINE] | drug-induced liver injury reported |
| CCCC(C)C1(CC)C(=O)NC(=O)NC1=O (centres undefined) [PENTOBARBITAL] | drug-induced liver injury reported |
| CN(C(=O)CN(CCO)CC(=O)N(C)C(C)(C)Cc1ccccc1)C(C)(C)Cc1ccccc1 [OXETHAZAINE] | no drug-induced liver injury reported |
| CCOC(=O)n1ccn(C)c1=S [CARBIMAZOLE] | drug-induced liver injury reported |

same assay, conditions: human, Liver

| Molecule | Hepatotoxicity |
| --- | --- |
| CCN(CC)CC(=O)Nc1c(C)cccc1C [LIDOCAINE] | drug-induced liver injury reported |
| O=P1(N(CCCl)CCCl)NCCCO1 (centres undefined) [CYCLOPHOSPHAMIDE ANHYDROUS] | drug-induced liver injury reported |

tested on: Hepatotoxicity; test: Literature-mined compound from Fourches et al multi-species drug-induced liver injury (DILI) dataset, effect in rodents; settings: rodentia

| Molecule | Hepatotoxicity |
| --- | --- |
| CNC(=O)[C@H]1O[C@@H](n2cnc3c(NCc4cccc(I)c4)ncnc32)[C@H](O)[C@@H]1O [IB-MECA] | drug-induced liver injury reported |
| CCN(CC)CCCC(C)Nc1c2ccc(Cl)cc2nc2ccc(OC)cc12 (centres undefined) [QUINACRINE] | drug-induced liver injury reported |
| CC(c1cc2ccccc2s1)N(O)C(N)=O (centres undefined) [ZILEUTON] | drug-induced liver injury reported |
| C[C@]12C=CC(=O)C=C1CC[C@@H]1[C@@H]2[C@@H](O)C[C@@]2(C)[C@H]1CC[C@]2(O)C(=O)CO [PREDNISOLONE] | drug-induced liver injury reported |
| POLYVINYL ALCOHOL | no drug-induced liver injury reported |
| O=C(CO)[C@@H](O)[C@H](O)[C@H](O)CO [FRUCTOSE] | drug-induced liver injury reported |
| CCn1cc(C(=O)O)c(=O)c2cnc(N3CCNCC3)nc21 [PIPEMIDIC ACID] | no drug-induced liver injury reported |
| CC(C)(C)NCC(O)COc1cccc2c1CC(O)C(O)C2 (centres undefined) [NADOLOL] | no drug-induced liver injury reported |
| Cc1c(C)c2c(c(C)c1O)CCC(C)(COc1ccc(CC3SC(=O)NC3=O)cc1)O2 (centres undefined) [TROGLITAZONE] | drug-induced liver injury reported |
| O=C1CC2(CCCC2)CC(=O)N1CCCCN1CCN(c2ncccn2)CC1 [BUSPIRONE] | no drug-induced liver injury reported |
| CCOc1nc2cccc(C(=O)OC(C)OC(=O)OC3CCCCC3)c2n1Cc1ccc(-c2ccccc2-c2nnn[nH]2)cc1 (centres undefined) [CANDESARTAN CILEXETIL] | drug-induced liver injury reported |
| CC(=O)OCC(CCn1cnc2cnc(N)nc21)COC(C)=O [FAMCICLOVIR] | no drug-induced liver injury reported |
| CN(C)[C@@H]1C(O)=C(C(=O)NCN2CCCC2)C(=O)[C@@]2(O)C(O)=C3C(=O)c4c(O)cccc4[C@@](C)(O)[C@H]3C[C@@H]12 [ROLITETRACYCLINE] | drug-induced liver injury reported |
| COc1ccc(C(=O)c2ccccc2)c(O)c1 [OXYBENZONE] | drug-induced liver injury reported |
| CC1(C)[C@H](C(=O)O)N2C(=O)C[C@H]2S1(=O)=O [SULBACTAM] | no drug-induced liver injury reported |
| CCOC(=O)[C@H](CCc1ccccc1)N[C@@H](C)C(=O)N1[C@H](C(=O)O)C[C@H]2CCCC[C@@H]21 [TRANDOLAPRIL] | no drug-induced liver injury reported |
| CC(=O)Oc1cc(C(C)C)c(OCCN(C)C)cc1C [MOXISYLYTE] | no drug-induced liver injury reported |
| C=CCC1(C(C)C#CCC)C(=O)N=C([O-])N(C)C1=O.[Na+] (centres undefined) [METHOHEXITAL SODIUM] | drug-induced liver injury reported |
| CN(CCOc1ccc(CC2SC(=O)NC2=O)cc1)c1ccccn1 (centres undefined) [ROSIGLITAZONE] | drug-induced liver injury reported |
| N[C@@H](CN(O)N=O)C(=O)O [ALANOSINE] | drug-induced liver injury reported |
| CC(=O)OCC(=O)[C@@]1(O)CC[C@H]2[C@@H]3CCC4=CC(=O)CC[C@]4(C)[C@H]3[C@@H](O)C[C@@]21C [HYDROCORTISONE ACETATE] | drug-induced liver injury reported |
| O=C1[C@H](CC[C@H](O)c2ccc(F)cc2)[C@@H](c2ccc(O)cc2)N1c1ccc(F)cc1 [EZETIMIBE] | drug-induced liver injury reported |
| C#CCN(C)[C@H](C)Cc1ccccc1 [SELEGILINE] | no drug-induced liver injury reported |
| CCCC(C)C1(CC)C(=O)NC(=O)NC1=O (centres undefined) [PENTOBARBITAL] | drug-induced liver injury reported |
| CN(C(=O)CN(CCO)CC(=O)N(C)C(C)(C)Cc1ccccc1)C(C)(C)Cc1ccccc1 [OXETHAZAINE] | drug-induced liver injury reported |
| CCOC(=O)n1ccn(C)c1=S [CARBIMAZOLE] | no drug-induced liver injury reported |

same assay, conditions: rodentia, Liver

| Molecule | Hepatotoxicity |
| --- | --- |
| CCN(CC)CC(=O)Nc1c(C)cccc1C [LIDOCAINE] | drug-induced liver injury reported |
| O=P1(N(CCCl)CCCl)NCCCO1 (centres undefined) [CYCLOPHOSPHAMIDE ANHYDROUS] | drug-induced liver injury reported |

tested on: Hepatotoxicity; test: Literature-mined compound from Fourches et al multi-species drug-induced liver injury (DILI) dataset, effect in non-rodents; settings: not given

| Molecule | Hepatotoxicity |
| --- | --- |
| CNC(=O)[C@H]1O[C@@H](n2cnc3c(NCc4cccc(I)c4)ncnc32)[C@H](O)[C@@H]1O [IB-MECA] | no drug-induced liver injury reported |
| CCN(CC)CCCC(C)Nc1c2ccc(Cl)cc2nc2ccc(OC)cc12 (centres undefined) [QUINACRINE] | drug-induced liver injury reported |
| CC(c1cc2ccccc2s1)N(O)C(N)=O (centres undefined) [ZILEUTON] | no drug-induced liver injury reported |
| C[C@]12C=CC(=O)C=C1CC[C@@H]1[C@@H]2[C@@H](O)C[C@@]2(C)[C@H]1CC[C@]2(O)C(=O)CO [PREDNISOLONE] | no drug-induced liver injury reported |
| POLYVINYL ALCOHOL | drug-induced liver injury reported |
| O=C(CO)[C@@H](O)[C@H](O)[C@H](O)CO [FRUCTOSE] | drug-induced liver injury reported |
| CCn1cc(C(=O)O)c(=O)c2cnc(N3CCNCC3)nc21 [PIPEMIDIC ACID] | no drug-induced liver injury reported |
| CC(C)(C)NCC(O)COc1cccc2c1CC(O)C(O)C2 (centres undefined) [NADOLOL] | no drug-induced liver injury reported |
| Cc1c(C)c2c(c(C)c1O)CCC(C)(COc1ccc(CC3SC(=O)NC3=O)cc1)O2 (centres undefined) [TROGLITAZONE] | drug-induced liver injury reported |
| O=C1CC2(CCCC2)CC(=O)N1CCCCN1CCN(c2ncccn2)CC1 [BUSPIRONE] | no drug-induced liver injury reported |
| CCOc1nc2cccc(C(=O)OC(C)OC(=O)OC3CCCCC3)c2n1Cc1ccc(-c2ccccc2-c2nnn[nH]2)cc1 (centres undefined) [CANDESARTAN CILEXETIL] | no drug-induced liver injury reported |
| CC(=O)OCC(CCn1cnc2cnc(N)nc21)COC(C)=O [FAMCICLOVIR] | no drug-induced liver injury reported |
| CN(C)[C@@H]1C(O)=C(C(=O)NCN2CCCC2)C(=O)[C@@]2(O)C(O)=C3C(=O)c4c(O)cccc4[C@@](C)(O)[C@H]3C[C@@H]12 [ROLITETRACYCLINE] | no drug-induced liver injury reported |
| COc1ccc(C(=O)c2ccccc2)c(O)c1 [OXYBENZONE] | no drug-induced liver injury reported |
| CC1(C)[C@H](C(=O)O)N2C(=O)C[C@H]2S1(=O)=O [SULBACTAM] | no drug-induced liver injury reported |
| CCOC(=O)[C@H](CCc1ccccc1)N[C@@H](C)C(=O)N1[C@H](C(=O)O)C[C@H]2CCCC[C@@H]21 [TRANDOLAPRIL] | no drug-induced liver injury reported |
| CC(=O)Oc1cc(C(C)C)c(OCCN(C)C)cc1C [MOXISYLYTE] | no drug-induced liver injury reported |
| C=CCC1(C(C)C#CCC)C(=O)N=C([O-])N(C)C1=O.[Na+] (centres undefined) [METHOHEXITAL SODIUM] | no drug-induced liver injury reported |
| CN(CCOc1ccc(CC2SC(=O)NC2=O)cc1)c1ccccn1 (centres undefined) [ROSIGLITAZONE] | no drug-induced liver injury reported |
| N[C@@H](CN(O)N=O)C(=O)O [ALANOSINE] | no drug-induced liver injury reported |
| CC(=O)OCC(=O)[C@@]1(O)CC[C@H]2[C@@H]3CCC4=CC(=O)CC[C@]4(C)[C@H]3[C@@H](O)C[C@@]21C [HYDROCORTISONE ACETATE] | no drug-induced liver injury reported |
| O=C1[C@H](CC[C@H](O)c2ccc(F)cc2)[C@@H](c2ccc(O)cc2)N1c1ccc(F)cc1 [EZETIMIBE] | drug-induced liver injury reported |
| C#CCN(C)[C@H](C)Cc1ccccc1 [SELEGILINE] | no drug-induced liver injury reported |
| CCCC(C)C1(CC)C(=O)NC(=O)NC1=O (centres undefined) [PENTOBARBITAL] | drug-induced liver injury reported |
| CN(C(=O)CN(CCO)CC(=O)N(C)C(C)(C)Cc1ccccc1)C(C)(C)Cc1ccccc1 [OXETHAZAINE] | no drug-induced liver injury reported |
| CCOC(=O)n1ccn(C)c1=S [CARBIMAZOLE] | no drug-induced liver injury reported |

same assay, conditions: Liver

| Molecule | Hepatotoxicity |
| --- | --- |
| CCN(CC)CC(=O)Nc1c(C)cccc1C [LIDOCAINE] | drug-induced liver injury reported |
| O=P1(N(CCCl)CCCl)NCCCO1 (centres undefined) [CYCLOPHOSPHAMIDE ANHYDROUS] | no drug-induced liver injury reported |
